Results: patent US8754227B2, “Metalloenzyme inhibitor compounds” (Viamet Pharmaceuticals, Inc., priority 2010, dated 2014)
Values after ≈ are worked out from the molar mass of the structure shown.

Key:
C. albicans = experiment: Minimum Inhibitory Concentration (MIC), CLSI M27-A2; assay type: cell-based; settings: Candida albicans; about 50% growth reduction; approximately 48 h at 35°C
Experimental: Compounds were assessed for their ability to inhibit the growth of common strains of fungus, C. albicans using a standardized procedure (CLSI M27-A2). Stock solutions of the test compounds and standards were prepared in DMSO at 1,600 μg/mL (C. albicans). Eleven, serial, one-half dilutions of compounds were prepared in 96-well plates in RPMI+MOPS. The assay concentration ranges were […] (C. albicans). Cell suspensions of C. albicans were prepared and added to each well at concentrations of approximately 3.7×10^3 colony-forming-units per milliliter (cfu/mL). All testing was in duplicate. The inoculated plates were incubated for approximately 48 h at 35±1° C. At the completion of incubation the wells of each plate were evaluated visually for the presence of fungal growth. […] For QC purposes C. krusei isolate ATCC 6258 (4.0×10^3 efu/mL) was included in the VOR assay.

CYP3A4 = CYP3A4 (Homo sapiens (Human), UniProt P08684); experiment: Inhibition of liver cytochrome P450 enzymes, pooled human liver microsomes; assay type: in vitro ADME
Sequence of CYP3A4 (P08684 whole entry): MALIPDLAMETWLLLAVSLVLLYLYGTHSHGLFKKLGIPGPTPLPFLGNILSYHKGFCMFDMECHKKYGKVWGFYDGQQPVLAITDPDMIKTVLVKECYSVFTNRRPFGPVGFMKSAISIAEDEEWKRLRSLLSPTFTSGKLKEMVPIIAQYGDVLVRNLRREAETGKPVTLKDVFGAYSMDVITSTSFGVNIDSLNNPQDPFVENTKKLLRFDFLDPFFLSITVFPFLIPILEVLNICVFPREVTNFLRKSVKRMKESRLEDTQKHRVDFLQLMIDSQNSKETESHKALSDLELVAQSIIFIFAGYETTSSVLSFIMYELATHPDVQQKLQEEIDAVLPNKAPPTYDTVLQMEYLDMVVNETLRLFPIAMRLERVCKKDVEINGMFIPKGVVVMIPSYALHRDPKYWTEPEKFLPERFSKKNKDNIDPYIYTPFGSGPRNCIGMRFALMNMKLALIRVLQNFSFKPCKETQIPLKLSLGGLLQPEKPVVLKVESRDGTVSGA
Experimental: (§1) Solutions of each test compound were separately prepared at concentrations of 20000, 6000, 2000, 600, 200, and 60 μM by serial dilution with DMSO:MeCN (50:50 v/v). […] The mixed inhibitor solutions were then diluted 20-fold with DMSO:MeCN:deionized water (5:5:180 v/v/v) to concentrations of 300, 100, 30, 10, 3, 1, 0.3, and 0.1 μM. The percent of organic solvent attributable to the test compound or inhibitor mixture in the final reaction mixture was 2% v/v. Pooled human liver microsome suspension (20 mg/mL) was diluted with phosphate buffer to obtain a 5 mg/mL suspension. A solution of NADPH was prepared in phosphate buffer at a concentration of 5 mM. Separate stock solutions of each substrate were prepared in DMSO:MeCN (50:50 v/v), mixed, and diluted in phosphate buffer to obtain a single solution containing each substrate at five times its experimentally determined Km concentration. The percent of organic solvent attributable to substrate mixture in the final reaction mixture was 1% v/v. Substrate solution and microsome suspension were combined in a 1:1 volume ratio, mixed, and distributed to reaction wells of a PCR plate. Individual test compound or combined inhibitor solutions at each concentration were added to the wells and mixed by repetitive aspirate-dispense cycles. […] Reaction mixtures were allowed to equilibrate at 37° C. for approximately two minutes before adding NADPH solution to initiate reaction, followed by pipette mixing of reaction mixture. Ten minutes after addition of NADPH, the reaction mixtures were quenched with cold acetonitrile. […] A portion of the supernatant was analyzed by gradient reverse-phase HPLC with detection by electrospray ionization triple quadrupole mass spectrometry in the positive ion mode. Data was fitted to sigmoid dose-response curves and the inhibitory potency of each test compound was determined as its IC50 value.

CYP2C19 = CYP2C19 (Homo sapiens (Human), UniProt P33261); experiment: as above; assay type: in vitro ADME
Sequence of CYP2C19 (P33261 whole entry): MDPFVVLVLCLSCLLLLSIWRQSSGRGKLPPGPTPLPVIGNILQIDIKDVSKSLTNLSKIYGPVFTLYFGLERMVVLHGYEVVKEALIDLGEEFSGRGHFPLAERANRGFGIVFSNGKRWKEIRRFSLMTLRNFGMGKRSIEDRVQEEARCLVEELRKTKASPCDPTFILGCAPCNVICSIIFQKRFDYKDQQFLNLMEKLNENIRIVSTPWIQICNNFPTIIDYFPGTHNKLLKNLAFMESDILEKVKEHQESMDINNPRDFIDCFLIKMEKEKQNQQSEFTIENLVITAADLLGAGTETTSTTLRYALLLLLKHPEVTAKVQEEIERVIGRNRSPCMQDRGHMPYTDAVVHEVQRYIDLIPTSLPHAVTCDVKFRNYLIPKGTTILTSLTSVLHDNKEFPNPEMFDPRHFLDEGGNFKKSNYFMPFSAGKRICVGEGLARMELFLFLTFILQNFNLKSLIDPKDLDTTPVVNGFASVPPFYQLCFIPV
Experimental: as §1

CYP2C9 = CYP2C9 (Homo sapiens (Human), UniProt P11712); experiment: as above; assay type: in vitro ADME
Sequence of CYP2C9 (P11712 whole entry): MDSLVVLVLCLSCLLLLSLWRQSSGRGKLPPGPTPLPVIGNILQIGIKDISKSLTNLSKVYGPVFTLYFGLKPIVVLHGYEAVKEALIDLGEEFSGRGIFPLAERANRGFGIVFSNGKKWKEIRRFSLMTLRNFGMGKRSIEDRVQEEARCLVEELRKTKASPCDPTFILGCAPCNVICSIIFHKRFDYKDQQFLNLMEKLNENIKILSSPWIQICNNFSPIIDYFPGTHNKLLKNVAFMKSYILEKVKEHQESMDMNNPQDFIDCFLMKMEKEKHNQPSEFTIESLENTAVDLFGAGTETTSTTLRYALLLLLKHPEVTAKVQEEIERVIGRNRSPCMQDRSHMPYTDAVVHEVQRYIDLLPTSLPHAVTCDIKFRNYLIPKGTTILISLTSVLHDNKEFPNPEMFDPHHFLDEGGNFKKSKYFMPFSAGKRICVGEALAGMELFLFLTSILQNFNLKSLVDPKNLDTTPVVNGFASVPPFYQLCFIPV
Experimental: as §1

SMILES | MIC (C. albicans) | IC50 (CYP3A4) | IC50 (CYP2C19) | IC50 (CYP2C9)
OC(Cn1cncn1)(c1ccc(F)cc1F)C(F)(F)c1ccc(-c2ccc(F)cc2)cn1 (stereo not drawn) [Example 16, 2-(2,4-Difluorophenyl)-1,1-difluoro-1-(5-(4-fluorophenyl)pyridin-2-yl)-3-(1H-1,2,4-triazol-1-yl)propan-2-ol] | 2 ng/mL (≈ 4.48 nM) |  |  | 
OC(Cn1cncn1)(c1ccc(F)cc1F)C(F)(F)c1ccc(-c2ccc(OCC(F)(F)F)cc2)cn1 (stereo not drawn) [Example 17, 2-(2,4-difluorophenyl)-1,1-difluoro-3-(1H-1,2,4-triazol-1-yl)-1-(5-(4-(2,2,2-trifluoroethoxy)phenyl)pyridin-2-yl)propan-2-ol] | ≤ 1 ng/mL |  |  | 
OC(Cn1cncn1)(c1ccc(F)cc1F)C(F)(F)c1ccc(-c2ccc(OC(F)(F)F)cc2)cn1 [Example 18, 2-(2,4-Difluorophenyl)-1,1-difluoro-3-(1H-1,2,4-triazol-1-yl)-L-(5-(4-(trifluoromethoxy)phenyl)pyridin-2-yl)propan-2-ol] | ≤ 1 ng/mL | 3.8 µM | 11 µM | 3.1 µM
